Read-outs that look alike come from different tables or passages of the source. One block for each molecule: values may come before it.
Assays:
[1] = Procedure: (§1) Materials and methods: In vivo as well as in vitro experiments were performed to study the effect of low-frequency ultrasound on the transport of insulin across the skin. In vitro experiments were performed using human cadaver skin. The skin was heat stripped by keeping it in water at 60° C. for two minutes followed by the removal of the epidermis. It was then stored at 4° C. in a humidified chamber. A piece of epidermis was taken out from the chamber prior to the experiments and was mounted on the Franz diffusion cell (Crown Bioscientific Co.) which consists of two compartments, the donor and the receiver compartment. […] The human cadaver epidermis (separated from the dermis by heat-treatment) is mounted between the two compartments and is supported by a Nylon mesh (Tetko Inc.) to avoid any damage. The skin was supported by a nylon mesh (Tetko Inc.) in order to a mimic the fact the skin in vivo is supported by mechanically strong dermis. The compartments were then clamped together. The receiver compartment was filled with 2%. BSA (Sigma Chemicals) solution in PBS (Sigma Chemicals) and the donor solution was filled with 100 U/ml solution of human recombinant insulin (Humulin Regular). The ultrasound intensity, I, (Spatial Average Temporal Peak) was calculated from the values of the acoustic pressure amplitude, P, measured using a hydrophone (Bruel and Kjaer) using the equation, I=P^2 /2.rho.c, where .rho. is the water density (1 gm/ml), and c is the velocity of ultrasound in water [1500 m/s].
diabetic hairless rats = assay: In vivo insulin sonophoresis, blood glucose level of diabetic hairless rats; design: species or system rat; conditions: in 30 minutes, 20 KHz
Procedure: The blood glucose level was measured every 30 minutes.

[2] = diabetic hairless rats
hairless rats [3] = assay: In vivo insulin sonophoresis, blood glucose level of normal hairless rats; conditions: for amount of insulin delivered: 225 mW/cm^2, area 3 cm^2; for blood glucose level after ultrasound exposure: normal rats, from about 250 mg/dl
Procedure: Materials and Methods: In vivo experiments were performed using hairless rats (Charles River). The rats were kept in quarantine to insure good health. On the day of experiment, they were taken out of the cages, anesthetized using a mixture of ketamine (90 mg/kg) and xylazine (10 mg/kg). After about an hour into anesthesia, a glass chamber was glued to the back of the rat using superglue (Permeabond). The glass chamber was filled with 100 U/ml solution of insulin and ultrasound (frequency of 20 KHz, intensity in the range of 0 to 1 W/cm^2, 100 msec pulses applied every second) was applied. The blood glucose level was measured every 30 minutes. Ultrasound was typically turned OFF after 1 hour, although the measurements of the blood glucose were continued for the next three hours.
To estimate the amount of insulin penetrating the hairless rat skin during sonophoresis at the various intensities reported in FIG. 2A, various known amounts of insulin in the range of 0 to 1 U subcutaneously (most commonly used method of insulin administration today) in normal rats. The blood glucose levels of these rats were then compared with those of the normal rats undergoing sonophoresis.
In order to estimate the dependence of the amount of insulin delivered on ultrasound exposure time (in vivo), insulin-sonophoresis experiments (20 KHz, […], 100 msec pulses applied every second) were performed on normal rats for different exposure times in the range of 1 minute to 1 hour.

[4] = In vitro skin permeability to proteins in the presence of ultrasound (Franz diffusion cell); type: in vitro ADME, human
Procedure: To assess whether application of ultrasound enhances transdermal protein flux, the skin permeability to these proteins in the presence of ultrasound in vitro across human cadaver epidermis in a Franz Diffusion Cell (Crown Glass Company) was measured. […] The concentration of proteins in the receiver compartment was measured every hour either by RIA or ELISA. The insulin concentration in the receiver compartment was measured every hour by Radioimmuno Assay (performed at Linco Research Inc., St. Charles). The γ-interferon concentration was measured using ELISA methods developed by Endogen Inc, and the erythropoeitin concentration was measured by ELISA (performed at ARUP, Salt Lake City). Skin permeabilities to proteins were calculated using the transdermal fluxes measured during the first hour. The transdermal flux can be calculated using the equation, J=DM/.increment.t, where .increment.M is the amount of protein transported per unit skin area during time .increment.t. The skin permeabilities, P, can be calculated from the transdermal flux, J, during the first hour of ultrasound application using the equation, P=J/.increment.C, where .increment.C is the concentration difference across the skin.

[5] = remark: listed apart in the source
Procedure: as §1
Ultrasound was turned ON at a frequency of 20 KHz, an intensity varying in the range of 0 to 1 W/cm^2 and 10% duty cycle. Samples (200 μl) were taken from the receiver compartment every hour to measure the concentration of insulin in the receiver compartment. The samples were immediately frozen and were stored at -20° C. till they were analyzed by RIA (Linco Research Co.). Ultrasound was typically applied for 4 hours and was then turned OFF. Transdermal insulin flux was followed for next two hours.

[6] = Transdermal glucose extraction by sonophoresis in vitro; type: in vitro ADME, human; conditions: for glucose concentration attained in the donor compartment: 10 minutes sonophoresis; for glucose concentration in the donor compartment as percent of that in the receiver compartment: 20 KHz, 125 mW/cm^2, continuous
Procedure: Transdermal transport of a ^14 C labeled (New England Nuclear) as well as non-labeled (Sigma Chemicals) was studied in the presence as well as in the absence of low-frequency ultrasound. The permeability experiments were performed in vitro using human cadaver skin obtained from local hospitals. […] The Franz diffusion cell consists of two compartments, the donor and the receiver compartments, with the stratum comeum facing the donor compartment. […] The donor and receiver compartments were then clamped. The receiver compartment was filled Phosphate Buffer Saline (PBS, phosphate concentration=0.01M, NaCl concentration=0.137M) (Sigma Chemicals Co.) The donor compartment was filled with a solution of either radiolabelled glucose (1 mCi/ml) or non-labeled glucose (concentration in the range of 50 mg/dL to 300 mg/dL) in separate experiments. The concentration of the permeant in the receiver compartment was measured every 5 minutes using a scintillation counter (model 2000 CA, Packard) in the case of radiolabelled glucose and using a commercially available kit (Sigma Chemicals) in the case of unlabeled glucose.
Ultrasound was applied using a sonicator (VCX 400, Sonics and Materials) operating at a frequency of 20 KHz. The ultrasound intensity was measured using a hydrophone (Model 8106, Bruel and Kjaer).
Additional experiments were performed to assess whether the amount of glucose transported by sonophoresis is proportional to the glucose concentration in the […]. In separate experiments, glucose concentration in the receiver solution was varied from 50 mg/dL to 350 mg/dL (typical variation in the blood glucose level of a diabetic patient) and performed sonophoresis using ultrasound (20 KHz, 125 mW/cm^2, continuous) for 10 minutes. […] The line shown in FIG. 3B represents the best fit.

hairless rats [7] = assay: Transdermal glucose extraction by sonophoresis in vivo; design: species or system rat; conditions: 20 KHz, 62.5, continuous, 1 minute
Procedure: In vivo experiments were performed to assess the efficacy of sonophoresis across living skin. […] The hairless rats were anesthetized with a mixture of ketamine (60 mg/kg) and xylazine (10 mg/kg). After about an hour in anesthesia, a flanged glass cylinder (Crown Glass Company, diameter 20 mm, height 2 cm) was glued on the rat's back using a minimal amount of superglue (Permabond International) or vacuum grease (Dow Chemicals) on the outer edge of the flange. The center of the cylinder was located about 3 cm from the rear end of the rat. This particular site was chosen to avoid application of ultrasound directly on a sharp bone close to the body surface, which otherwise might have caused damage to the blood capillaries near the edge of the bone. The cylinder was filled with PBS (phosphate concentration=0.01M, NaCl concentration=0.137M) (Sigma Chemicals Co.). […] The concentration of glucose in PBS was measured using an assay kit (Sigma Chemicals).

[8] = within 2 hours after turning ultrasound OFF

Molecule: O [water]
- water permeability enhancement ([1]; during sonophoresis, 20 KHz, 125 mW/cm^2, 100 msec pulses every second): 100 fold
- recovery of water permeability enhancement [1, 8]: about 94 (±3) %
- recovery of water permeability enhancement ([1]; within 15 hours after turning ultrasound OFF): 98 (±1) %

Molecule: insulin
- blood glucose level after insulin-ultrasound treatment (diabetic hairless rats; diabetic hairless rats, from about 400 mg/dl, 225 mW/cm^2, 100 msec pulses every second): 200 mg/dL
- blood glucose level after insulin-ultrasound treatment (diabetic hairless rats; diabetic rat, from 400 mg/dl, 125 mW/cm^2, 100 msec pulses every second): 200 mg/dL
- level of transdermally delivered human insulin in rat plasma ([2]; after 30 minutes of sonophoresis): 77 (±28) picomolar
- level of transdermally delivered human insulin in rat plasma ([2]; after 1 hour of sonophoresis): 178 (±84) picomolar
- blood glucose level upon 1 hour insulin-ultrasound treatment (hairless rats [3]; 20 KHz, 100 msec pulses every second, intensities 0 to 225 mW/cm^2): intensity dependent decrease
- amount of insulin delivered (hairless rats [3]; 10 minute ultrasound application): about 100 mU
- amount of insulin delivered (hairless rats [3]; 1 hour ultrasound exposure): about 1 U
- blood glucose level after ultrasound exposure (hairless rats [3]; 10 minute exposure, 20 KHz): about 150 mg/dl
- blood glucose level after ultrasound exposure (hairless rats [3]; 1 hour exposure, 20 KHz): about 30 mg/dl
- subcutaneous insulin dose inducing a similar decrease in blood glucose level (hairless rats [3]; sonophoresis 1 hour at 62.5 mW/cm^2): 100 mU
- subcutaneous insulin dose inducing a similar decrease in blood glucose level (hairless rats [3]; sonophoresis 1 hour at 225 mW/cm^2): 1 U
- dose deliverable from a transdermal patch by sonophoresis ([4]; patch area 40 cm^2, donor 100 U/ml insulin, 3×10^7 γ-interferon, 3×10^5 U/ml erythropoeitin): about 12 U/h
- human skin permeability ([4]; ultrasound 20 KHz, 225 mW/cm^2, 100 msec pulses every second, first hour): 3.3×10^-3 (±35%) cm/h
- transdermal insulin flux before ultrasound ([5]; before ultrasound turned ON): below the detection limit
- insulin dose that could be delivered from a patch ([5]; flux 100 mU/cm^2 /hr, patch area 100 cm^2): about 13 U/h
- transdermal insulin flux after turning ultrasound OFF ([5]; three hours after turning ultrasound OFF): statistically insignificant
- transdermal insulin flux ([5]; ultrasound 20 KHz, 125 mW/cm^2, 10%, reached in about 1 hour, almost constant while ultrasound ON, donor 100 U/ml): about 100 mU/cm^2 /hr
- transdermal insulin permeability without ultrasound ([5]; ultrasound intensity = 0 (FIG. 1B)): impermeable
- transdermal insulin flux after turning ultrasound OFF [5, 8]: below our detection limit

- glucose concentration attained in the donor compartment ([6]; receiver compartment 50 mg/dL): 0.5 mg/dL
- glucose concentration attained in the donor compartment ([6]; receiver compartment 350 mg/dL): 6.5 mg/dL
- glucose concentration in the donor compartment as percent of that in the receiver compartment ([6]; after 5 minutes of sonophoresis): about 0.5%
- glucose concentration in the donor compartment as percent of that in the receiver compartment ([6]; after 10 minutes of sonophoresis): about 2%
- glucose concentration in the reservoir after extraction (hairless rats [7]; rat blood glucose 450 mg/dL): 1 mg/dL
- glucose concentration in the reservoir after extraction (hairless rats [7]; rat blood glucose about 200 mg/dL): 0.2 mg/dL
Molecule: O=C[C@H](O)[C@@H](O)[C@H](O)[C@H](O)CO [glucose]

Molecule: erythropoeitin
- dose deliverable from a transdermal patch by sonophoresis [4]: about 140 U/h
- human skin permeability [4]: 9.8×10^-6 (±40%) cm/h

B1: γ-interferon (protein, UniProt P01579 24-161, looked up)
Interferon gamma: QDPYVKEAENLKKYFNAGHSDVADNGTLFLGILKNWKEESDRKIMQSQIVSFYFKLFKNFKDDQSIQKSVETIKEDMNVKFFNSNKKKRDDFEKLTNYSVTDLNVQRKAIHELIQVMAELSPAAKTGKRKRSQMLFRG
notes: γ-interferon (2500 U/ml, Genzyme Corp.), molecular weight 17,000 D
- dose deliverable from a transdermal patch by sonophoresis [4]: about 5×10^6 U/h
- human skin permeability [4]: 8×10^-4 (±22%) cm/h
